US12485178B2, “Bifunctional small molecules to target the selective degradation of circulating proteins” (YALE UNIVERSITY, priority 2018, dated 2025)

Tests used:
human MIF [1] = molecular target: T1, human MIF (Homo sapiens, UniProt P14174); assay: Depletion of human MIF from supernatant of cultured HepG2 cells (sandwich ELISA); format: cell-based; conditions: 100 nM huMIF, after 24 hours
T1 sequence (P14174 2-115 limits assumed): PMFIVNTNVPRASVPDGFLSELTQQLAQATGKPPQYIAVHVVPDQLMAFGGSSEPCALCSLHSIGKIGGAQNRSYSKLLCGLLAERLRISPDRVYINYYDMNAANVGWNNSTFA
Method: In an experiment the results of which are presented in FIG. 3, bifunctional molecules were able to deplete human MIF from the supernatant of culture HepG2 cells. Briefly, human MIF (100 nM) was added to cell culture media in the presence of negative control MIF inhibitor 3w as well as bifunctional molecules MIF-NVS-PEGn-GN3, MIF-GN3, MIF-PEGn-Gn3, MIF-AcF3-1, MIF-AcF3-2, and MIF-AcF3-3. All molecules utilized a known MIF-binding ligand. Experiments were performed in 96 well plates (approximate surface area 0.3 cm^2). HepG2 cells were grown to 90% confluency in RPMI media, then washed with PBS (2×) and treated with serum-free media (optimem+0.1% BSA, +Pen/Strep) containing 100 nM huMIF (Cayman Chemical) and compounds (when applicable). Compounds were diluted from 1 mM stock solutions in DMSO. After 24 hours, a sample of the supernatant (2 uL) was collected, diluted 1:100, and analyzed for MIF content by sandwich ELISA (and incubated for 24 hours in the presence or absence of compound). Remaining MIF levels were determined by sandwich ELISA (biolegend monoclonal anti-MIF and biotinylated anti-MIF antibodies). Data represents the average of at least 3 biological replicates, and error bars represent a standard deviation. After 24 hours, up to 95.3% of the MIF had been depleted from cell culture media (in the case of MIF-AcF3-3).

human MIF [2] = molecular target: T1, human MIF; assay: Depletion of injected human MIF from mice (serum sandwich ELISA); format: in vivo, mouse
Method: Human MIF has a half-life of approximately 40 minutes in mice. In this experiment, human recombinant MIF (Cayman chemical) was co-injected into mice with an anti-DNP IgG, which was used as an injection positive control. In particular, nude mice were injected with 5 μg recombinant human MIF and 200 μg anti-DNP IgG as an injection control (FIG. 4). MIF-GN3 was then injected at the concentration shown and blood drawn every twenty minutes over the course of two hours. Serum was diluted 1:100 and analyzed for MIF content by sandwich ELISA (biolegend monoclonal anti-MIF and biotinylated anti-MIF antibodies). […] In the mice treated with MIF-GN3, a moderate increase in huMIF levels up to 20 ng/ml was seen, while in mice injected with PBS negative control, serum levels of up to 150 ng/ml were observed, evidencing a substantial decrease in huMIF levels as a consequence of the administration of MIF-GN3.

[3] = test system: PC3 human prostate cancer cells; assay: Mouse model of prostate cancer (PC3 engraftment), tumor growth; format: in vivo; conditions: nude mice engrafted with PC3 cells, treatment initiated immediately
Excerpt: In this experiment, nude mice were engrafted with PC3 human prostate cancer cells. Treatment was then initiated immediately with either a non-bifunctional MIF inhibitor (3w), an anti-MIF antibody, or MIF-GN3.

human MIF [4] = molecular target: T1, human MIF; assay: Trafficking of MIF internalized by HepG2 cells to lysosomes (immunofluorescence colocalization); format: cell-based; conditions: 100 nM rhuMIF, 200 nM compound, 12 hours
Method: In this experiment, cells were incubated with rhuMIF (Cayman) at a concentration of 100 nM with 200 nM MIF-GN3.

| Structure (SMILES) | MIF depleted from cell culture media (human MIF [1]) [%] | serum huMIF levels (human MIF [2]; nude mice injected with 5 μg recombinant human MIF, blood drawn over two hours) | depletion of injected human MIF from mice (human MIF [2]; nude mice, FIG. 5) | tumor growth [3] | MIF internalization in lysosomes (human MIF [4]) |
| --- | --- | --- | --- | --- | --- |
| O=C(CCOCC(COCCC(=O)NCCOCCOCCOCCOC[C@@]12CO[C@@H](O1)[C@H](NC(=O)C(F)(F)F)[C@@H](O)[C@H]2O)(COCCC(=O)NCCOCCOCCOCCOC[C@@]12CO[C@@H](O1)[C@H](NC(=O)C(F)(F)F)[C@@H](O)[C@H]2O)NC(=O)CCCOc1ccc2nc(-c3cn(-c4ccc(O)c(F)c4)nn3)ccc2c1)NCCOCCOCCOCCOC[C@@]12CO[C@@H](O1)[C@H](NC(=O)C(F)(F)F)[C@@H](O)[C@H]2O [MIF-AcF3-3] | 95.3 | – | – | – | – |
| CC(=O)N[C@H]1[C@H](OCCOCCOCCNC(=O)CCOCC(COCCC(=O)NCCOCCOCCO[C@@H]2O[C@H](CO)[C@H](O)[C@H](O)[C@H]2NC(C)=O)(COCCC(=O)NCCOCCOCCO[C@@H]2O[C@H](CO)[C@H](O)[C@H](O)[C@H]2NC(C)=O)NC(=O)CNC(=O)CCCOc2ccc3nc(-c4cn(-c5ccc(O)c(F)c5)nn4)ccc3c2)O[C@H](CO)[C@H](O)[C@@H]1O [MIF-GN3] | – | up to 20 ng/ml | mediates the depletion of injected human MIF from mice | slowing of tumor growth | evidencing internalization in lysosomes |
